Measurements as given in article PMC7170299, “Design, synthesis, molecular modelling and biological evaluation of novel 3-(2-naphthyl)-1-phenyl-1H-pyrazole derivatives as potent antioxidants and 15-Lipoxygenase inhibitors” (Journal of Enzyme Inhibition and Medicinal Chemistry, 2020).

Key:
[1] = DPPH radical scavenging assay; conditions: mean ± SEM of three experiments; 30 min, 517 nm
Description: The DPPH scavenging activity of all synthesized compounds was measured as previously described by Nahar et al.[48] with some modifications. Briefly, 100 µL of different concentrations of the tested compounds (12.5, 25, 50, 100, and 200 µg/mL) were pipetted into a 96-well plate. Then, 100 µL of 100-µM DPPH methanolic solution were added to each well and the plate was incubated protected from light at room temperature for 30 min. The absorbance of the solution was measured at λ517 nm.[49] Ascorbic acid was used as the positive control while DMSO was the negative control. The percentage of DPPH scavenging activity was calculated according to the following equation: % of DPPH scavenging=[(Acontrol–Asample)/Acontrol] ×100, where Acontrol is the absorbance of the control reaction (with all reagents except the test compound), and Asample is the absorbance of the test sample. […] All tests were performed in triplicates.

[2] = NO scavenging assay (sodium nitroprusside / Griess reagent); conditions: for NO IC50: mean ± SEM of three experiments, 90 min, 546 nm
Description: The NO scavenging activity of all synthesized compounds was measured as previously described by Ho et al.[50] Briefly, 50 µL of different concentrations of the tested compounds (12.5, 25, 50,100, and 200 µg/mL) were pipetted into a 96-well plate. Then, 50 µL of 10-mM sodium nitroprussides dissolved in phosphate-buffered saline PBS (pH 7.4) were added to each well and the plate was incubated for 90 min at room temperature. Next, an equal volume of Griess reagent (1% of sulphanilamide and 0.1% of naphthyl ethylene diamine in 2.5% […]) was added to each well to measure the nitrite content. The absorbance of the formed pink-coloured chromophore was measured at λ 546 nm. DMSO and ascorbic acid were used as the negative and positive control, respectively. All tests were performed in triplicate. The percentage of NO scavenging activity was calculated according to the following equation: % of NO scavenging=[(Acontrol−Asample)/Acontrol]×100 where Acontrol is the absorbance of the control reaction (with all reagents except the test compound), and Asample is the absorbance of the test sample.

[3] = Superoxide scavenging assay (pyrogallol autoxidation); conditions: mean ± SEM of three experiments; pyrogallol autoxidation, 325 nm
Description: The improved pyrogallol autoxidation method was used to determine O2^−. RSA of all synthesized compounds as previously described. Briefly, 50 µL of test compounds (12.5, 25, 50,100, and 200 µg/mL) was added to 2900 µl of […] Tris HCl buffer (0.05 M, pH 7.4) containing 1-mM Na2EDTA. Next, 50 µL of 60-mM pyrogallol in1mM HCl had been thoroughly mixed with the mixture. The absorbance of the reaction mixture was measured at A325 nm every 30 s for 5 min. O2^− RSA was expressed by the oxidation degree of a test group in comparison to that of the control. The absorbance at 325 nm was measured against the Tris-HCl buffer every 30 s for 5 min. The percentage of scavenging effect was calculated using the following equation: O2^− radical scavenging %=[(ΔA325, control/T)−(ΔA325nm, sample/T)/ΔA325nm, control/T]×100 where ΔA325 nm, control is the increase in A325 nm of the reaction mixture without the sample and ΔA325 nm, sample is that for the mixture with the sample; T=5 min. The experiments were performed in triplicate.

[4] = biological target: T1, Soybean 15-LOX enzyme (Glycine max, UniProt P08170); test: In vitro lipoxygenase inhibition (Cayman lipoxygenase inhibitor screening assay kit); assay type: biochemical; conditions: mean ± SEM of three experiments; substrate arachidonic acid
T1 construct: purchased Cayman Chemical 760700
T1 sequence (P08170 1-839): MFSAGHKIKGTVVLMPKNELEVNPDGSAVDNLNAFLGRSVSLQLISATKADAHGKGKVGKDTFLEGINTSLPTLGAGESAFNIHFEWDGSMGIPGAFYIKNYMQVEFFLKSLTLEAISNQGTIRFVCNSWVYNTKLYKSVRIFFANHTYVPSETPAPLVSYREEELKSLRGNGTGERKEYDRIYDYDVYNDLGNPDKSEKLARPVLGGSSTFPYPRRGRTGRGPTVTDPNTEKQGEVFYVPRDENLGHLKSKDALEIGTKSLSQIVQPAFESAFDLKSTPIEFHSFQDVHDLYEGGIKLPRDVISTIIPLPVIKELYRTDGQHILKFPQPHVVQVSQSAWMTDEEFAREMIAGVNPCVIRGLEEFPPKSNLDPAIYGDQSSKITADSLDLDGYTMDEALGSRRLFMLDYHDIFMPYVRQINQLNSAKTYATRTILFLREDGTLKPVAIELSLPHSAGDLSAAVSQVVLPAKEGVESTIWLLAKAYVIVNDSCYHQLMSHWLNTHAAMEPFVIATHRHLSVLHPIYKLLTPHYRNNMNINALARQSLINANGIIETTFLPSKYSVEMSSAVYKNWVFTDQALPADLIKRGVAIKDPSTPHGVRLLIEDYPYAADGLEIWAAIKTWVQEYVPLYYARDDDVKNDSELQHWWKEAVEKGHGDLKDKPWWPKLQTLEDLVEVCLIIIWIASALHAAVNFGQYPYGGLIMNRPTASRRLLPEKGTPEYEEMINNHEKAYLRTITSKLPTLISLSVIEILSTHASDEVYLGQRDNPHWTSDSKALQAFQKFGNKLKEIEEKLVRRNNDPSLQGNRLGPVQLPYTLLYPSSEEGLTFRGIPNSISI
Description: The assay was performed using Cayman’s lipoxygenase inhibitor screening assay kit (Catalog No. 760700, Cayman Chemical, USA) according to the manufacturer’s instructions. Briefly, 90 µL of 15-LOX was pipetted into a 96-well plate. Next, 10 µL of test compound at concentrations (2.5, 5.0 and 10 µM) dissolved in DMSO were added to each well. The reaction was initiated by adding 10 µL substrate (AA) and the plate was placed on a shaker for at least 5 minutes. Finally, 100 µL of chromogen (prepared according to manufacturer’s instructions) was added to each well to stop enzyme catalysis and develop the reaction. 100 µL of Assay buffer (0.1 M Tris-HCl, pH7.4) was used in blank wells. […] The absorbance of the solution was measured at λ 490–500 nm. The percentage inhibition was calculated according to the following equation: % inhibition =[(IA−Ainhibitor sample)/IA]×100 where (IA) is the 100% initial activity and (Ainhibitor sample) is the absorbance of the test sample. Dose–response curve was plotted between % inhibition and the drug concentration. The non-linear dose–response curve was used for calculating drug concentration showing 50% enzyme inhibition.

Row | Compound | DPPH IC50 [1] [µg/mL] | NO IC50 [2] [µg/mL] | melting point [°C] | Superoxide IC50 [3] [µg/mL] | IC50 [4] [µM] | NO scavenging potency relative to ascorbic acid ([2]; folds that of ascorbic acid) [folds]
1 | O=C(/C=C/c1cn(-c2ccccc2)nc1-c1ccc2ccccc2c1)c1ccccc1 [Compound 2a, 3-(3-Naphthalen-2-yl-1-phenyl-1H-pyrazole-4-yl)-1-phenyl propenone] | >200 | >200 | 158 to 159 | >200 |  | 
2 | COc1ccc(C(=O)/C=C/c2cn(-c3ccccc3)nc2-c2ccc3ccccc3c2)cc1 [Compound 2b, 1-(4-Methoxyphenyl)-3-(3-naphthalen-2-yl-1-phenyl-1H-pyrazole-4-yl)-propenone] | 182.17 ± 0.99 | 78.25 ± 1.25 | 187 to 188 | >200 | 3.13 ± 0.09 | 
3 | Cc1ccc(C(=O)/C=C/c2cn(-c3ccccc3)nc2-c2ccc3ccccc3c2)cc1 [Compound 2c, 3-(3-Naphthalen-2-yl-1-phenyl-1H-pyrazol-4-yl)-1-p-tolyl propenone] | 192.70 ± 1.63 | >200 | 146 to 147 | >200 | 2.8 ± 0.06 | 
4 | O=C(/C=C/c1cn(-c2ccccc2)nc1-c1ccc2ccccc2c1)c1ccc(Cl)cc1 [Compound 2d, 1-(4-chlorophenyl)-3-(3-naphthalen-2-yl-1-phenyl-1H-pyrazol-4-yl)propenone] | >200 | >200 | 161 to 162 | >200 |  | 
5 | O=C(/C=C/c1cn(-c2ccccc2)nc1-c1ccc2ccccc2c1)c1ccc(Cl)c(Cl)c1 [Compound 2e, 1-(3,4-Dichlorophenyl)-3-(3-naphthalen-2-yl-1-phenyl-1H-pyrazol-4-yl)propenone] | 118.99 ± 1.78 | 11.04 ± 0.72 | 168 to 169 | >200 | 4.63 ± 0.09 | 3.4
6 | COc1ccc(C2=NNC(c3cn(-c4ccccc4)nc3-c3ccc4ccccc4c3)C2)cc1 (stereo not drawn) [Compound 3b, 5-(4-Methoxyphenyl)-3′-naphthalen-2-yl-1′-phenyl-3,4-dihydro-2H,1’H-[3,4′] bipyrazole] | 11.70 ± 0.29 | 147.95 ± 1.32 | 177 to 178 | 118.65 ± 1.03 | 4.6 ± 0.06 | 
7 | Cc1ccc(C2=NNC(c3cn(-c4ccccc4)nc3-c3ccc4ccccc4c3)C2)cc1 (stereo not drawn) [Compound 3c, 3’-Naphthalen-2-yl-1’-phenyl-5-p-tolyl-3,4-dihydro-2H, 1’H -[3,4’]bipyrazole] | 12.06 ± 1.17 | >200 | 187 to 188 | >200 | 3.77 ± 0.07 | 
8 | Clc1ccc(C2=NNC(c3cn(-c4ccccc4)nc3-c3ccc4ccccc4c3)C2)cc1 (stereo not drawn) [Compound 3d, 5-(4-Chlorophenyl)-3′-naphthalen-2-yl-1′-phenyl-3,4-dihydro-2H,1’H-[3,4′] bipyrazole] | >200 | >200 | 190 to 191 | >200 |  | 
9 | Clc1ccc(C2=NNC(c3cn(-c4ccccc4)nc3-c3ccc4ccccc4c3)C2)cc1Cl (stereo not drawn) [Compound 3e, 5-(3,4-Dichlorophenyl)-3′-naphthalen-2-yl-1′-phenyl-3,4-dihydro-2H,1’H-[3,4′]-bipyrazole] | 9.63 ± 0.55 | 175.72 ± 1.41 | 195 to 196 | 129.12 ± 0.82 | 2.53 ± 0.07 | 
10 | c1ccc(C2=NN(c3ccccc3)C(c3cn(-c4ccccc4)nc3-c3ccc4ccccc4c3)C2)cc1 (stereo not drawn) [Compound 4a, 3′-Naphthalen-2-yl-2,5,1′-triphenyl-3,4-dihydro-2H,1’H-[3,4′]bipyrazole] | 34.39 ± 1.03 | >200 | 187 to 188 | 176.14 ± 1.63 | 2.53 ± 0.09 | 
11 | COc1ccc(C2=NN(c3ccccc3)C(c3cn(-c4ccccc4)nc3-c3ccc4ccccc4c3)C2)cc1 (stereo not drawn) [Compound 4b, 5-(4-Methoxyphenyl)-3′-naphthalen-2-yl-2,1′-diphenyl-3,4-dihydro-2H,1’H-[3,4′] bipyrazole] | 21.28 ± 1.14 | >200 | 156 to 157 | 65.63 ± 1.46 | 4 ± 0.06 | 
12 | Cc1ccc(C2=NN(c3ccccc3)C(c3cn(-c4ccccc4)nc3-c3ccc4ccccc4c3)C2)cc1 (stereo not drawn) [Compound 4c, 3′-Naphthalen-2-yl-2,1′-diphenyl-5-p-tolyl-3,4-dihydro-2H, 1’H -[3,4′]bipyrazole] | 24.42 ± 0.9 | 179.9 ± 1.31 | 198 to 199 | 145.7 ± 1.42 | 1.83 ± 0.07 | 
13 | Clc1ccc(C2=NN(c3ccccc3)C(c3cn(-c4ccccc4)nc3-c3ccc4ccccc4c3)C2)cc1 (stereo not drawn) [Compound 4d, 5-(4-Chlorophenyl)-3′-naphthalen-2-yl-2,1′-diphenyl-3,4-dihydro-2H,1'H-[3,4′] bipyrazole] | >200 | >200 | 192 to 193 | >200 |  | 
14 | Clc1ccc(C2=NOC(c3cn(-c4ccccc4)nc3-c3ccc4ccccc4c3)C2)cc1 (stereo not drawn) [Compound 5d, 3-(4-Chlorophenyl)-5-(3-naphthalen-2-yl-1-phenyl-1H-pyrazol-4-yl)-4,5-dihydro isoxazole] | >200 | >200 | 185 to 186 | >200 |  | 
